# Test results taken from paper PMC9784969, “SARS-CoV-2 Inhibitors Identified by Phenotypic Analysis of a Collection of Viral RNA-Binding Molecules” (Pharmaceuticals, 2022).
# Like-named read-outs stand apart in the source and are kept apart here.
# Tests used:
# SARS-CoV-2 USA-WA1/2020 [1] = experiment: microbe, parasite or virus in culture; format: cell-based; settings: read-out: SARS-CoV-2 EC50
# HIV-1 = settings: cited from earlier work
# [2] = system: subdomain IIB of the rev recognition element (RRE) of the HIV-1 genomic RNA; settings: cited from earlier work
# in vitro [3] = settings: African green monkey, uninfected Vero E6 cells
# SARS-CoV-2 USA-WA1/2020 [4] = experiment: microbe, parasite or virus in culture; format: cell-based; settings: read-out: SARS-CoV-2 EC50; remark: listed apart in the source
# SCoV2 USA-WA1/2020 = format: cell-based; settings: 293T-ACE2, MOI 2, 8-h single cycle
# in vitro [5] = settings: human, uninfected 293T-ACE2 cells
# SCoV2 RNA elements = experiment: ligand-based 1H NMR (1D, CPMG, wLOGSY), six RNA elements compared; format: binding, SARS-CoV-2; settings: CSP, LB, CPMG and wLOGSY perturbations; 300 µM compound
# From the text: We first used ligand-based ^1H NMR experiments to analyze the interaction of the selected compounds with each of the six RNA elements specified above, including one-dimensional, Carr–Purcell–Meiboom–Gill (CPMG) and waterLOGSY (wLOGSY) experiments. These assays detect changes in the ^1H signals of the ligand upon RNA association (Figure 4A), and have been successfully used to evaluate small-molecule binding to RNA motifs, including elements of the SCoV2 genome.
# Each ligand (at a concentration of 300 μM) was mixed with a smaller quantity of RNA in an aqueous solution containing 25 mM potassium phosphate (pH 6.2), 150 mM KCl, 3 mM MgCl2, and 10% D2O. RNA–ligand molar ratios of 1:50 and 1:100 were explored (with 6 and 3 μM RNA, respectively). […] The water signal was suppressed from one-dimensional experiments with a watergate sequence. The CPMG experiments were acquired with 100, 200, 300, and 400 ms relaxation delays before acquisition, and water suppression was achieved by presaturation. wLOGSY experiments employed a selective Gaussian 180° pulse at the water frequency and an NOE mixing time of 1.5 s and suppressed the water signal by excitation sculpting. All spectra were acquired in the absence and presence of RNA.
# All ligand signals were individually analyzed. For clomiphene citrate, the signals corresponding to cis and trans forms were identified by comparing the spectrum of clomiphene citrate with those of the individual stereoisomers. In CPMG experiments, the binding of the compounds to the different RNA sequences was quantified as 100 minus the percentage of ligand signal area in the +RNA CPMG spectrum relative to the corresponding signal area in the -RNA CPMG spectrum. In wLOGSY experiments, binding was quantified with the LOGSY factor, or % of ligand signal in the difference spectrum between the +RNA and –RNA wLOGSY spectra, relative to the corresponding signal in the one-dimensional -RNA reference spectrum. In one-dimensional experiments, line broadening (LB) was quantified as explained for CPMG spectra.
# [6] = Severe acute respiratory syndrome coronavirus 2, Vero C1008, 48 h, Vero E6 cells, MOI 0.025, two days
# [7] = ref 3 (Table S1 list: Simba-Lahuasi et al., Unpublished results)
# [8] = ref 5 (Table S1 list: Sedgwick, Ph.D. thesis 2018)
# [9] = ref 2 (Table S1 list: Prado et al. 2018)
# [10] = ref 4 (Table S1 list: Medina-Trillo et al. 2020)
# [11] = Vero E6 cells, MOI 0.025, two days
# [12] = Severe acute respiratory syndrome coronavirus 2, Vero C1008, 48 h
# [13] = Severe acute respiratory syndrome coronavirus 2, 293T/ACE2, 48 h
# [14] = ref 1 (Table S1 list: Prado et al. 2016)
compound,measurement,setting,value
CCC(=C(c1ccc(OC)cc1)c1ccc(OC)cc1)c1cn(CC(O)CN(C)C)c2ccccc12 (centres unmarked) [Bisphenylindol],EC50,SARS-CoV-2 USA-WA1/2020 [1]; [6],2.1 µM
same,Previous target virus activity,HIV-1; [7],yes
same,Previous target RNA binding,[2]; [7],yes
CN(C)CCOc1ccc(C(=C(CCO)c2ccccc2)c2ccccc2)cc1 [βOH-tamoxifen],EC50,SARS-CoV-2 USA-WA1/2020 [1]; [6],5.4 µM
same,Previous target virus activity,HIV-1; ref Unpublished,yes
same,Previous target RNA binding,[2]; ref Unpublished,yes
same,CC50 at 2 days,in vitro [3],22.2 µM
Cc1cc(-c2c(CCNC(=N)N)cccc2CCNC(=N)N)cc(C)c1-c1cc(CCCNC(=N)N)cc(CCCNC(=N)N)c1 [compound 18],EC50,SARS-CoV-2 USA-WA1/2020 [1]; [6],> 20 µM
same,Previous target virus activity,HIV-1; [8],yes
same,Previous target RNA binding,[2]; [8],yes
same,CC50 at 2 days,in vitro [3],> 20 µM
OC(CNCC1CCCO1)Cn1c2ccc(Br)cc2c2cc(Br)ccc21 (centres unmarked) [1b],Previous target virus activity,HIV-1; [9],yes
same,Previous target virus activity,HIV-1; [10],no
same,Previous target RNA binding,[2]; [9],yes
same,Previous target RNA binding,[2]; [10],yes
"CCN(CC)CCOc1ccc(C(O)(Cc2ccc(Cl)cc2)c2ccc(C)cc2)cc1 (centres unmarked) [Triparanol, reference compound]",EC50,SARS-CoV-2 USA-WA1/2020 [1]; [6],0.811 µM
same,Previous target virus activity,HIV-1; [7],yes
same,Previous target RNA binding,[2]; [7],yes
same,CC50 at 2 days,in vitro [3],> 20 µM
CN(C)CCOc1cc2c(c3ccccc13)-c1ccccc1C2=O [1a],EC50,SARS-CoV-2 USA-WA1/2020 [1]; [11],> 20 µM
same,Previous target virus activity,HIV-1; [9],yes
same,Previous target virus activity,HIV-1; [10],yes
same,Previous target RNA binding,[2]; [9],yes
same,Previous target RNA binding,[2]; [10],yes
Cc1cc(-c2cc(CCN)ccc2CCN)c(C)cc1-c1ccccc1CCN [compound 4],EC50,SARS-CoV-2 USA-WA1/2020 [1]; [6],> 20 µM
same,Previous target virus activity,HIV-1; [10],yes
same,Previous target RNA binding,[2]; [10],yes
same,CC50 at 2 days,in vitro [3],> 20 µM
"CCC(CC)COC(=O)[C@H](C)N[P@](=O)(OC[C@H]1O[C@@](C#N)(c2ccc3c(N)ncnn23)[C@H](O)[C@@H]1O)Oc1ccccc1 [Remdesivir, reference compound]",EC50,SARS-CoV-2 USA-WA1/2020 [1]; [12],0.428 µM
same,EC50,SARS-CoV-2 USA-WA1/2020 [4]; [13],0.0104 µM
same,inhibition when added at +4 h,SCoV2 USA-WA1/2020,decreased
same,CC50 at 2 days,in vitro [3],> 20 µM
same,CC50 at 2 days,in vitro [5],> 2 µM
Cis-clomiphene,RNA binding preference,SCoV2 RNA elements,bound RNA with stronger affinity than the trans form
same,Previous target virus activity,HIV-1; ref Unpublished,yes
same,Previous target RNA binding,[2]; ref Unpublished,yes
Cc1cc(-c2c(CCN)cccc2CCN)cc(C)c1-c1cc(CCCN)c(O)c(CCCN)c1 [compound 11],EC50,SARS-CoV-2 USA-WA1/2020 [1]; [6],> 20 µM
same,Previous target virus activity,HIV-1; [8],yes
same,Previous target RNA binding,[2]; [8],yes
same,CC50 at 2 days,in vitro [3],> 20 µM
Fc1nc(N2CCNCC2)c(F)c(Sc2ccc(Cl)cc2)c1F [2a],EC50,SARS-CoV-2 USA-WA1/2020 [1]; [12],6.24 µM
same,EC50,SARS-CoV-2 USA-WA1/2020 [4]; [13],0.63 µM
same,Previous target virus activity,HIV-1; [9],yes
same,Previous target RNA binding,[2]; [9],yes
same,CC50 at 2 days,in vitro [3],> 20 µM
same,CC50 at 2 days,in vitro [5],5.32 µM
"O=C(O)c1cn(C2CC2)c2cc(N3CCNCC3)c(F)cc2c1=O [Cyprofloxacine, reference compound]",EC50,SARS-CoV-2 USA-WA1/2020 [1]; [6],> 20 µM
same,Previous target virus activity,HIV-1; [14],yes
same,Previous target RNA binding,[2]; [14],yes
CCN(CC)CCNc1cc(-c2cccs2)nc2ccccc12 [1d],EC50,SARS-CoV-2 USA-WA1/2020 [1]; [6],6.64 µM
same,EC50,SARS-CoV-2 USA-WA1/2020 [1]; [11],6.24 µM
same,Previous target virus activity,HIV-1; [9],yes
same,Previous target RNA binding,[2]; [9],yes
same,CC50 at 2 days,in vitro [5],7.5 µM
C=C(C)Cn1c(NCCCn2ccnc2)nc2c1c(=O)[nH]c(=O)n2C [17a5],EC50,SARS-CoV-2 USA-WA1/2020 [1]; [6],> 20 µM
same,Previous target virus activity,HIV-1; [9],yes
same,Previous target RNA binding,[2]; [9],yes
same,CC50 at 2 days,in vitro [3],> 20 µM
"O=C1c2c(O)ccc(O)c2C(=O)c2c(NCCNCCO)ccc(NCCNCCO)c21 [Mitoxantrone, reference compound]",EC50,SARS-CoV-2 USA-WA1/2020 [1]; [6],2.4 µM
same,Previous target virus activity,HIV-1; [14],yes
same,Previous target RNA binding,[2]; [14],yes
same,CC50 at 2 days,in vitro [3],0.806 µM
"CN1CCC(=C2c3ccccc3C=Cc3ccccc32)CC1 [Cyprohetadine, reference compound]",Previous target virus activity,HIV-1; [14],yes
same,Previous target RNA binding,[2]; [14],yes
same,CC50 at 2 days,in vitro [3],> 20 µM
CCC(=C(c1ccccc1)c1ccc(OCCN(C)C)cc1)c1ccc(O)cc1 [4'OH-tamoxifen],EC50,SARS-CoV-2 USA-WA1/2020 [1]; [6],0.74 µM
same,Previous target virus activity,HIV-1; ref Unpublished,yes
same,Previous target RNA binding,[2]; ref Unpublished,yes
same,CC50 at 2 days,in vitro [3],2.7 µM
COc1ccc(-c2cc(C)c(-c3cc(CCN)c(OC)cc3CCN)cc2C)cc1CCN [3a],EC50,SARS-CoV-2 USA-WA1/2020 [1]; [6],> 20 µM
same,Previous target virus activity,HIV-1; [10],yes
same,Previous target RNA binding,[2]; [10],yes
same,CC50 at 2 days,in vitro [3],> 20 µM
CC1CN(C(c2ccccc2)(c2ccccc2)c2ccccc2)CCN1 (centres unmarked) [Trityl-piperazine],EC50,SARS-CoV-2 USA-WA1/2020 [1]; [6],0.644 µM
same,EC50,"SARS-CoV-2 USA-WA1/2020 [4]; Severe acute respiratory syndrome coronavirus 2, 48 h, 293T-ACE2 cells, MOI 0.25, two days",0.27 µM
same,Previous target virus activity,HIV-1; [7],yes
same,Previous target RNA binding,[2]; [7],yes
same,CC50 at 2 days,in vitro [3],2.22 µM
same,CC50 at 2 days,in vitro [5],> 3.67 µM
CCC(=C(c1ccccc1)c1ccc(OCCN(C)CCOc2ccc(C(=C(CC)c3ccccc3)c3ccccc3)cc2)cc1)c1ccccc1 [Tamoxifen dimer],EC50,SARS-CoV-2 USA-WA1/2020 [1]; [6],> 20 µM
same,Previous target virus activity,HIV-1; ref Unpublished,no
same,Previous target RNA binding,[2]; ref Unpublished,yes
same,CC50 at 2 days,in vitro [3],> 20 µM
Cc1cc(-c2c(CCN)cccc2CCN)cc(C)c1-c1cc(CCN)c(Oc2ccccc2)c(CCN)c1 [compound 6],EC50,SARS-CoV-2 USA-WA1/2020 [1]; [6],> 20 µM
same,Previous target virus activity,HIV-1; [8],yes
same,Previous target RNA binding,[2]; [8],yes
same,CC50 at 2 days,in vitro [3],> 20 µM
Trans-clomiphene,Previous target virus activity,HIV-1; ref Unpublished,yes
same,Previous target RNA binding,[2]; ref Unpublished,yes
COc1ccc(-c2ccc(-c3ccc(O)c(CCN)c3)c(C)c2)c(CCN)c1 [compound 1],EC50,SARS-CoV-2 USA-WA1/2020 [1]; [6],> 20 µM
same,Previous target RNA binding,[2]; [8],yes
same,CC50 at 2 days,in vitro [3],> 20 µM
